Measurements reported in ChEMBL document CHEMBL3425434 (J Med Chem, 2015).
Activity calls are given as the source filed them. No cut-off for these calls is given here.

Columns and labels:
[1] = Stability in human plasma assessed as compound remaining after 60 mins by LC-MS/MS analysis; type: ADME, cell-free; conditions: read-out: Stability
[2] = Half life in human plasma by LC-MS/MS analysis; type: ADME, cell-free
[3] = target: T1, Rho-associated protein kinase 2 (Homo sapiens, UniProt O75116); test: Inhibition of human N-terminal GST-tagged ROCK2 expressed in baculovirus-infected insect cells using long S6 kinase peptide as substrate by radiometric assay in presence of [32P]ATP and 200 uM ATP
[4] = Stability in human plasma assessed as compound remaining after 60 mins by LC-MS/MS analysis in presence of 5 uM cholinesterase inhibitor tacrine; type: ADME, cell-free; conditions: with tacrine (cholinesterase inhibitor), read-out: Stability
[5] = target: T1, Rho-associated protein kinase 2; test: Inhibition of human N-terminal GST-tagged ROCK2 expressed in baculovirus-infected insect cells using long S6 kinase peptide as substrate by radiometric assay in presence of [32P]ATP
[6] = Cytotoxicity against human HDF-1 cells assessed as decrease in cell viability after 2 hrs by WST-1 assay; type: cell-based
[7] = Inhibition of ROCK-catalysed MLC Thr18/Ser19 phosphorylation in rat A7r5 cells after 90 mins by ELISA; type: cell-based; conditions: A7R5, 1.5 h
HDF-1 = test: Induction of cell migration in human HDF-1 cells after 8 hrs by wound healing assay; type: functional, cell-based
[8] = Induction of apoptosis in human HDF-1 cells assessed as increase in caspase3/7 activity at 40-100 uM after 24 hrs by caspase Glo-3/7 assay; type: cell-based; conditions: hdf-1, 24 h
Plasma [9] = test: Stability in human plasma by LC-MS/MS analysis in presence of 5 mM PON1 inhibitor, disodium EDTA; type: ADME, cell-free
Plasma [10] = test: Stability in human plasma after 120 mins by LC-MS/MS analysis in presence of generic serine protease/serine esterase inhibitor, PMSF; type: ADME, cell-free; conditions: 2 h
Plasma [11] = test: Stability in human plasma by LC-MS/MS analysis in presence of arylesterase inhibitor DTNB; type: ADME, cell-free
Plasma [12] = test: Stability in human plasma by LC-MS/MS analysis in presence of carboxylesterase inhibitor BNPP; type: ADME, cell-free
[13] = Induction of apoptosis in human HDF-1 cells assessed as increase in caspase3/7 activity at 60 uM after 24 hrs by caspase Glo-3/7 assay; type: cell-based; conditions: hdf-1, 24 h
[14] = Half life in human hepatocytes by LC-PDA-MSA analysis; type: ADME, cell-based, Hepatocyte
[15] = Stability in human hepatocytes assessed as compound remaining after 120 mins by LC-MS/MS analysis; type: ADME, cell-based, Hepatocyte; conditions: read-out: Stability
[16] = Cmax in NewZealand white rabbit plasma at 0.1 mg/kg, iv after 10 mins by LC-MS/MS analysis; type: ADME, organism-based, Oryctolagus cuniculus; design: dose 0.1 mg/kg, route intravenous; conditions: New Zealand white
Oryctolagus cuniculus [17] = test: Cmax in NewZealand white rabbit plasma assessed as 4-{[(2'-(Aminomethyl)-5'-{[(3-fluoropyridin-4-yl)amino]-carbonyl}biphenyl-3-yl)carbonyl]amino}benzoic Acid at 0.1 mg/kg, iv after 120 mins by LC-MS/MS analysis; type: ADME, organism-based; design: dose 0.1 mg/kg, route intravenous; conditions: in vivo, 2 h
[18] = Half life in NewZealand white rabbit hepatocytes by LC-PDA-MSA analysis; type: ADME, cell-based, Oryctolagus cuniculus, Hepatocyte; conditions: New Zealand white
[19] = target: Rho-associated protein kinase 1 (Homo sapiens, UniProt Q13464); test: Inhibition of human N-terminal GST-tagged ROCK1 expressed in insect cells using long S6 kinase peptide as substrate by radiometric assay in presence of [32P]ATP
[20] = target: Protein kinase C delta type (Homo sapiens) (UniProt Q05655); test: Inhibition of human full length PKC delta expressed in insect cells using PKCe peptide as substrate at 100 nM by radiometric assay in presence of [32P]ATP and lipid activator
[21] = target: Serine/threonine-protein kinase N2 (Homo sapiens) (UniProt Q16513); test: Inhibition of human full length N-terminal GST-tagged PRK2 expressed in insect cells using glycogen synthase derived peptide as substrate at 100 nM by radiometric assay in presence of [32P]ATP
[22] = Stability in NewZealand white rabbit hepatocytes assessed as compound remaining after 120 mins by LC-MS/MS analysis; type: ADME, cell-based, Oryctolagus cuniculus, Hepatocyte; conditions: New Zealand white, read-out: Stability
[23] = Cmax in NewZealand white rabbit plasma at 0.1 mg/kg, iv after 5 mins by LC-MS/MS analysis; type: ADME, organism-based, Oryctolagus cuniculus; design: dose 0.1 mg/kg, route intravenous; conditions: New Zealand white
[24] = target: Serine/threonine-protein kinase N2 (Homo sapiens) (UniProt Q16513); test: Inhibition of human full length N-terminal GST-tagged PRK2 expressed in insect cells using glycogen synthase derived peptide as substrate at 10 nM by radiometric assay in presence of [32P]ATP
[25] = target: Protein kinase C eta type (Homo sapiens) (UniProt P24723); test: Inhibition of human N-terminal GST-tagged PKC eta expressed in baculovirus-infected insect cells using PKCe peptide as substrate at 100 nM by radiometric assay in presence of [32P]ATP and lipid activator
[26] = target: Protein kinase C eta type (Homo sapiens) (UniProt P24723); test: Inhibition of human N-terminal GST-tagged PKC eta expressed in baculovirus-infected insect cells using PKCe peptide as substrate at 10 nM by radiometric assay in presence of [32P]ATP and lipid activator
[27] = target: T2, cAMP-dependent protein kinase catalytic subunit PRKX (Homo sapiens) (UniProt P51817); test: Inhibition of human full length N-terminal GST-tagged PRKX expressed in insect cells using kemptide as substrate at 100 nM by radiometric assay in presence of [32P]ATP
T2 sequence (whole entry): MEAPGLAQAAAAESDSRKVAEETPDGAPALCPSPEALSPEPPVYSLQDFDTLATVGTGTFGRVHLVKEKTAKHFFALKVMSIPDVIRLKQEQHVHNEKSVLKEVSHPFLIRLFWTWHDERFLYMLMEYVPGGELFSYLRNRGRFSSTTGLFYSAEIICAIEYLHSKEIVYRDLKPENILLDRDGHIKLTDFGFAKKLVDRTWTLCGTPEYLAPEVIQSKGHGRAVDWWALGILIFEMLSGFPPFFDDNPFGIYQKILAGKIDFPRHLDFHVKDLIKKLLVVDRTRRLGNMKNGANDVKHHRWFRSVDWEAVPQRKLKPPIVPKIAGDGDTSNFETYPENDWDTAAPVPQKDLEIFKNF

[28] = Lipophilicity, log D of the compound at pH 7.4; type: physicochemical; conditions: buffer
[29] = Cmax in NewZealand white rabbit plasma at 0.1 mg/kg, iv after 30-60 mins by LC-MS/MS analysis; type: ADME, organism-based, Oryctolagus cuniculus; design: dose 0.1 mg/kg, route intravenous; conditions: New Zealand white
[30] = Cmax in NewZealand white rabbit plasma at 0.1 mg/kg, iv after 1 min by LC-MS/MS analysis; type: ADME, organism-based, Oryctolagus cuniculus; design: dose 0.1 mg/kg, route intravenous; conditions: New Zealand white
[31] = Half life in NewZealand white rabbit plasma by LC-MS/MS analysis; type: ADME, cell-free, Oryctolagus cuniculus; conditions: New Zealand white
[32] = target: T3, Protein kinase C epsilon type (Homo sapiens) (UniProt Q02156); test: Inhibition of human full length PKC epsilon expressed in insect cells using S25 PKC peptide as substrate at 100 nM by radiometric assay in presence of [32P]ATP
T3 sequence (whole entry): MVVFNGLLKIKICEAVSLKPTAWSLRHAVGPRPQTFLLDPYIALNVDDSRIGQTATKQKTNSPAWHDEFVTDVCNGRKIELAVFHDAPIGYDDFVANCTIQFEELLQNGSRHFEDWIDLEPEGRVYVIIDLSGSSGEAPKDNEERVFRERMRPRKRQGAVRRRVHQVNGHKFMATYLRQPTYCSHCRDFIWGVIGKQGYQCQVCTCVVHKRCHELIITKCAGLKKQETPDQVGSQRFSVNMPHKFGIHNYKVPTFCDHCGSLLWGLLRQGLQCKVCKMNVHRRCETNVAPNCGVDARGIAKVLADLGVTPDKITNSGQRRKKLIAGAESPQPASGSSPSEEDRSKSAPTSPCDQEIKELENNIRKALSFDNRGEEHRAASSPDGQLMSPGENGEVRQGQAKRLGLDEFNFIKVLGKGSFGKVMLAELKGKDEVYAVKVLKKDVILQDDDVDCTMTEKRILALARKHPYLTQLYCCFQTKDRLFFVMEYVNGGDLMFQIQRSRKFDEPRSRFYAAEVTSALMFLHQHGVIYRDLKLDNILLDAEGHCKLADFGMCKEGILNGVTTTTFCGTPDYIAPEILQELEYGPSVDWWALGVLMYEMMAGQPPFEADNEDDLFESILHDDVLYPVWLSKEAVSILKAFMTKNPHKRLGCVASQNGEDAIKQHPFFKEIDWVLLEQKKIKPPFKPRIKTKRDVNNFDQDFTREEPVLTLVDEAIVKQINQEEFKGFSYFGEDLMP

Oryctolagus cuniculus [33] = test: Cmax in NewZealand white rabbit plasma assessed as 4-{[(2'-(Aminomethyl)-5'-{[(3-fluoropyridin-4-yl)amino]-carbonyl}biphenyl-3-yl)carbonyl]amino}benzoic Acid at 0.1 mg/kg, iv after 10 mins by LC-MS/MS analysis; type: ADME, organism-based; design: dose 0.1 mg/kg, route intravenous; conditions: in vivo
[34] = Half life in NewZealand white rabbit plasma at 0.1 mg/kg, iv by LC-MS/MS analysis; type: ADME, organism-based, Oryctolagus cuniculus; design: dose 0.1 mg/kg, route intravenous; conditions: New Zealand white
Homo sapiens = species: Homo sapiens; test: Inhibition of human full length C-terminal His6-tagged PKC theta P300L mutant expressed in baculovirus-infected insect cells using histone H1 as substrate at 100 nM by radiometric assay in presence of [32P]ATP and lipid activator
[35] = target: Serine/threonine-protein kinase N1 (Homo sapiens) (UniProt Q16512); test: Inhibition of human full length N-terminal GST-tagged PRK1 expressed in insect cells using glycogen synthase derived peptide as substrate at 100 nM by radiometric assay in presence of [32P]ATP
[36] = target: Ribosomal protein S6 kinase alpha-5 (Homo sapiens) (UniProt O75582); test: Inhibition of human full length N-terminal GST-tagged MSK1 expressed in insect cells using crosstide as substrate at 100 nM by radiometric assay in presence of [32P]ATP
[37] = Apparent permeability across human Caco2 cells; type: ADME, cell-based; conditions: Caco-2

T1 sequence (O75116 whole entry): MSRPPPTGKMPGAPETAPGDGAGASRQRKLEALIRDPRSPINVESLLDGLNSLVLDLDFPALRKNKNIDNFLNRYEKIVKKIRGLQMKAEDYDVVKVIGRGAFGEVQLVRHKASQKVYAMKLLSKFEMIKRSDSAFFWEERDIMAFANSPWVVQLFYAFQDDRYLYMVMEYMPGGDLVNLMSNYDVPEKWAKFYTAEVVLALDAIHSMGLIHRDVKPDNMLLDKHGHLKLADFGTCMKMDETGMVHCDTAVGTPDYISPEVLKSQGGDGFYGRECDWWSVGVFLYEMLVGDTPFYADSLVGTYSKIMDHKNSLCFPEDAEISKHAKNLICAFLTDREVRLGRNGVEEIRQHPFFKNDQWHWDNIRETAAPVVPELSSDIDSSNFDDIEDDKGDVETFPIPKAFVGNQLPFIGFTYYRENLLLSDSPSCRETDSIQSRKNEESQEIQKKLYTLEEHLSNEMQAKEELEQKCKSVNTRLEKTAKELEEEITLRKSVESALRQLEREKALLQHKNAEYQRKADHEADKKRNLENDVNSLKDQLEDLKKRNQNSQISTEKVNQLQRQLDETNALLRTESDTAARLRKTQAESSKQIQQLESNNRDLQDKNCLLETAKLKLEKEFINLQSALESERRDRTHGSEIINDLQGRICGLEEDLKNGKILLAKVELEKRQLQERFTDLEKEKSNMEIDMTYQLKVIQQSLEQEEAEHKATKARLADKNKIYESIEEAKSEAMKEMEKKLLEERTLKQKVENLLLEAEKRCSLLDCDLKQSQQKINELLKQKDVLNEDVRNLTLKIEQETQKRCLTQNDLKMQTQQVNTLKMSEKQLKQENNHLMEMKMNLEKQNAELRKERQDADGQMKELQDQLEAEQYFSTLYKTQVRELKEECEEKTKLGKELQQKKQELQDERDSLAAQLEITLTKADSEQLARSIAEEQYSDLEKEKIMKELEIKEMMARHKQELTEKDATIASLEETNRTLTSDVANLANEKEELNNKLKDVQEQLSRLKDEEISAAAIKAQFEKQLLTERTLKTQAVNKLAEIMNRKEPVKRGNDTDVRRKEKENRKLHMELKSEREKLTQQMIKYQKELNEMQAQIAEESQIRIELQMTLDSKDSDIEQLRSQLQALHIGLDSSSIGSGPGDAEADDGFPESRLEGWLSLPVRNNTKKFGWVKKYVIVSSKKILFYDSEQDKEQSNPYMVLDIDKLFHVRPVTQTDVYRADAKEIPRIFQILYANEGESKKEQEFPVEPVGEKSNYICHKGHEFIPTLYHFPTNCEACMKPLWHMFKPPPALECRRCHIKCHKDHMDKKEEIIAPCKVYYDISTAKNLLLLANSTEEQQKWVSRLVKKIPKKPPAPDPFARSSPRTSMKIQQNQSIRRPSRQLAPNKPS
Protein kinase C eta type (Homo sapiens), sequence (P24723 whole entry): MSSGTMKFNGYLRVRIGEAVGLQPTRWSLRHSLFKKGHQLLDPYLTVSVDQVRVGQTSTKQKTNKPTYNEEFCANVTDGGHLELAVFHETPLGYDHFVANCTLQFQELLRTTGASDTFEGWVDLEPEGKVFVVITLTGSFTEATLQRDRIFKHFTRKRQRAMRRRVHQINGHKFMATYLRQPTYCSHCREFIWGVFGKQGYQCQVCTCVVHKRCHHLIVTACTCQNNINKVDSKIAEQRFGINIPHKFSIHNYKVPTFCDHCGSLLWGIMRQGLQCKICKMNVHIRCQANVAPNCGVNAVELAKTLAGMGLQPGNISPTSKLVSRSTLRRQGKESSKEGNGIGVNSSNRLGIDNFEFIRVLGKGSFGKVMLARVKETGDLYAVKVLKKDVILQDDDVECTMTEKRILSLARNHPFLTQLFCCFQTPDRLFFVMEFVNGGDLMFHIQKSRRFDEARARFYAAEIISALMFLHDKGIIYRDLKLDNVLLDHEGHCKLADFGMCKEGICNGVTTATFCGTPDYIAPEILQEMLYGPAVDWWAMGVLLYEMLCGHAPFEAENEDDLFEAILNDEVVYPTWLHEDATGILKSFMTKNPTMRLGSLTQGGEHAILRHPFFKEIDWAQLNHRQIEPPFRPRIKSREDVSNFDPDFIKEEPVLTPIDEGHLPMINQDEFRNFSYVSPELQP
Serine/threonine-protein kinase N2 (Homo sapiens), sequence (Q16513 whole entry, looked up): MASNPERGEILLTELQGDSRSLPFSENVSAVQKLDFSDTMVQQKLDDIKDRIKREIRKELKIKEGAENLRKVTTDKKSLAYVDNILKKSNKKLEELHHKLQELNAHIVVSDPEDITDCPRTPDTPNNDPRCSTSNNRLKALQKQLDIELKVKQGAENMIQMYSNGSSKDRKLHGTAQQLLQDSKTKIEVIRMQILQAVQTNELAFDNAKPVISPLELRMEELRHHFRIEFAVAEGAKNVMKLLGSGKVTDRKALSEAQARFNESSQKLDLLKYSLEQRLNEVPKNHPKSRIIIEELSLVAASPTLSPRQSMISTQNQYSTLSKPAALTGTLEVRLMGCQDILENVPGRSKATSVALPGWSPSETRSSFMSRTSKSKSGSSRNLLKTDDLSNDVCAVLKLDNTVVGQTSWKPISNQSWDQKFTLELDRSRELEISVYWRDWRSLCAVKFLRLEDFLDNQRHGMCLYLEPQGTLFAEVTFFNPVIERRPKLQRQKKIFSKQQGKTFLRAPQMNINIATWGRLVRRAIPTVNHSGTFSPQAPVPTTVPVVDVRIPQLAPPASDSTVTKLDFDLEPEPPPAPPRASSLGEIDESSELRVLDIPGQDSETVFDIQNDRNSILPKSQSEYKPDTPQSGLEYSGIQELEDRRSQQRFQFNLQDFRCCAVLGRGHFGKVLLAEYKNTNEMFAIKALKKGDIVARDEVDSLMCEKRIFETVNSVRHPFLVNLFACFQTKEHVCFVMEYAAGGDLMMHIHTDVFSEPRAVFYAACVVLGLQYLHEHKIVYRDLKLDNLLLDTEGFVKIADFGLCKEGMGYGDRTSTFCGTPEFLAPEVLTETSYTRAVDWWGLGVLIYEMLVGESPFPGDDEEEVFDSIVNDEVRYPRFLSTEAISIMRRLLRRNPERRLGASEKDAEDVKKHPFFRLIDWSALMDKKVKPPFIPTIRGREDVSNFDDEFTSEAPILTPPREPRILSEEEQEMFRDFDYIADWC
Serine/threonine-protein kinase N1 (Homo sapiens), sequence (Q16512 2-942 limits assumed): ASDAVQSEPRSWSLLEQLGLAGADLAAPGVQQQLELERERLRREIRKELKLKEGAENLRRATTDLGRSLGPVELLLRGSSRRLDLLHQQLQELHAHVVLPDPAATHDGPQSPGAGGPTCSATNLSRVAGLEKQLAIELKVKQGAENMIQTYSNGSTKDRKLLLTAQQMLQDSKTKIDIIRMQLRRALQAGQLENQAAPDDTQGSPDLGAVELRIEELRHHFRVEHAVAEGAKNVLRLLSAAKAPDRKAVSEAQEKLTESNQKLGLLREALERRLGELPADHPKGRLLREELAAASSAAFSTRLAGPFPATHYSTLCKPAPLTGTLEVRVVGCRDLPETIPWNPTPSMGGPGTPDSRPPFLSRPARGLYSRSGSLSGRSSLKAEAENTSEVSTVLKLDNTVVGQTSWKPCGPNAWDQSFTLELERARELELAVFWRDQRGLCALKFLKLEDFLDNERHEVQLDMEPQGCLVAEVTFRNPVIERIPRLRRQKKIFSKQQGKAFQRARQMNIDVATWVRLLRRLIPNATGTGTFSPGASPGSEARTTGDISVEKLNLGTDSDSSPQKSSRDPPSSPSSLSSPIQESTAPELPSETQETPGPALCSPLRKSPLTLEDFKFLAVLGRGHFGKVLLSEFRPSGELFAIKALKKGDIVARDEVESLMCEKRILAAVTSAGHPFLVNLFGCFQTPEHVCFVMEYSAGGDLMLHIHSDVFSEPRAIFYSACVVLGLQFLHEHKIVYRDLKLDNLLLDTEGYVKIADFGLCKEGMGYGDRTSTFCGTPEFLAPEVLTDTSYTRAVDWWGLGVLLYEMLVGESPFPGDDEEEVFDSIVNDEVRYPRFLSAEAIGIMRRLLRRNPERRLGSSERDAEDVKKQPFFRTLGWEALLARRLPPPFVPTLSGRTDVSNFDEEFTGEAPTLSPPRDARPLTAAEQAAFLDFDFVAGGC
Ribosomal protein S6 kinase alpha-5 (Homo sapiens), sequence (O75582 whole entry, looked up): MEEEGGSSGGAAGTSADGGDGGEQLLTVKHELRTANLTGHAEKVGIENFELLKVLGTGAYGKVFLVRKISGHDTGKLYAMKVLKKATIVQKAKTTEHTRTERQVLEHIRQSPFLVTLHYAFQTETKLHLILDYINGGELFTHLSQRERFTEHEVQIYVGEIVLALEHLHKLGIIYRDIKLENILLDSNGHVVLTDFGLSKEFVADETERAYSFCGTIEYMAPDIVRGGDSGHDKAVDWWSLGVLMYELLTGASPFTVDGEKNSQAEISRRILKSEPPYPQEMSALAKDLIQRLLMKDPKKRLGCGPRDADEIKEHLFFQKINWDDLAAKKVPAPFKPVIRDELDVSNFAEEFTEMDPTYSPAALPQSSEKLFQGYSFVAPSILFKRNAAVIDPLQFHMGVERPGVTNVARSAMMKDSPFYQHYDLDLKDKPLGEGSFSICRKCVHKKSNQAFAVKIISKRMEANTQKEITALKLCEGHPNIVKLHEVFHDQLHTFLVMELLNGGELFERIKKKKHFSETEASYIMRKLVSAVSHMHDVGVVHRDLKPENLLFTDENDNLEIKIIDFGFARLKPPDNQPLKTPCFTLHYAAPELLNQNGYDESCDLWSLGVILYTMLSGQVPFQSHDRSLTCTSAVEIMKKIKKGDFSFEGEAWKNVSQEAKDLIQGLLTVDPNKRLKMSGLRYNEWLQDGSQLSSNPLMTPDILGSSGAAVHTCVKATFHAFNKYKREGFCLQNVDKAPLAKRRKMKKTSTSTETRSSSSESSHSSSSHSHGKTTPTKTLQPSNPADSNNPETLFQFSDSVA

NCc1ccc(C(=O)Nc2ccncc2F)cc1-c1cccc(C(=O)Nc2ccc(CC(=O)OC3CCCC3)cc2)c1
remaining at 1 h [1]: 2%
half-life [2]: 7 min
IC50 [3]: 1.3 nM
remaining at 1 h [4]: 100%
IC50 [5]: < 1 nM
CC50 at 2 h [6]: 29000 nM
EC50 [7]: 26 nM
Activity (HDF-1): Dose-dependent effect
Activity [8]: Toxic

COC(=O)c1ccc(F)c(NC(=O)c2cccc(-c3cc(C(=O)Nc4ccncc4F)ccc3CN)c2)c1
remaining at 1 h [1]: 13%
half-life [2]: 18 min
Stability (Plasma [9]): Unstable
IC50 [3]: 46 nM
remaining at 1 h [4]: 98%
IC50 [5]: 1.6 nM
CC50 at 2 h [6]: 45000 nM
Stability (Plasma [10]): Stable
EC50 [7]: 26 nM
Stability (Plasma [11]): Unstable
Activity (HDF-1): Dose-dependent effect
Stability (Plasma [12]): Unstable
Activity [13]: Toxic

COC(=O)c1ccc(NC(=O)c2cccc(-c3cc(C(=O)Nc4ccncc4F)ccc3CN)c2)cc1
half-life [14]: 12 min
half-life [2]: > 120 min
remaining at 2 h [15]: 2.4%
Cmax [16]: 57 nM
Cmax (Oryctolagus cuniculus [17]): > 35 nM
half-life [18]: 12 min
IC50 [3]: 4.1 nM
IC50 [19]: < 1 nM
inhibition [20]: Active
IC50 [5]: < 1 nM
inhibition [21]: Active
remaining at 2 h [22]: 0.4%
CC50 at 2 h [6]: 46000 nM
Cmax [23]: 176 nM
inhibition [24]: > 50%
EC50 [7]: 3 nM
inhibition [25]: Active
inhibition [26]: > 50%
Activity (HDF-1): Dose-dependent effect
inhibition [27]: Active
logD [28]: 2.74
Cmax [29]: > 8 nM
Cmax [30]: 803 nM
half-life [31]: > 120 min
inhibition [32]: Active
Cmax (Oryctolagus cuniculus [33]): 255 nM
half-life [34]: 22 min
Activity [13]: Toxic
inhibition (Homo sapiens): Active
inhibition [35]: Active
inhibition [36]: Active
Papp [37]: 0.8 ×10⁻⁶ cm/s
